Measurements: US20100029752A1, “NOVEL COMPOUNDS, PHARMACEUTICAL COMPOSITIONS CONTAINING SAME, AND METHODS OF USE FOR SAME” (priority 2005, published 2010)
In brackets after ≈: the same amount, converted by molar mass. Read-outs that look alike come from different tables or passages of the source.

Key:
[1] = test system: Staphylococcus aureus (ATCC # 29213); assay: Broth microdilution MIC, S. aureus; type: cell-based; conditions: for MIC: Staphylococcus aureus, ATCC29213
Protocol: (§1) A broth microdilution assay is used to assess the antimicrobial activity of the compounds. […] Microorganisms tested include Staphylococcus aureus (ATCC # 29213), Enterococcus faecalis (ATCC # 29212), Pseudomonas aeruginosa (ATCC # 27853), and Escherichia coli (ATCC # 25922). The assay is performed in two growth media, Mueller Hinton Broth and Trypticase Soy Broth. A blood (Tsoy/5% sheep blood) agar plate is inoculated from frozen stocks maintained in T soy broth containing 10% glycerol and incubated overnight at 37° C. Colonies are suspended in sterile broth so that the turbidity matches the turbidity of a 0.5 McFarland standard. The inoculum is diluted 1:10 in sterile broth (Mueller Hinton or Trypticase soy) and 195 ul is dispensed per well of a 96-well plate. The compounds to be tested, dissolved in DMSO, are added to the wells in 5 ul volume at the following concentrations: 25, 12.5, 6.25, 3.125, 1.56 and 0.78 ug/ml in duplicate. Additional concentrations are tested if required. 5 ul of DMSO added to duplicate wells are the vehicle control. Serial dilutions of positive control compounds, vancomycin (E. faecalis and S. aureus) and tobramycin (E. coli and P. aeruginosa), are included in each run. After 24 hours of incubation at 37° C., plates are read at OD600 on a Molecular Devices SpectraMax Plus Spectrophotometer. Average OD600 values are computed using SOFTmax Pro Software (Molecular Devices) and MIC values are determined by linear regression analysis using Prism version 3.02 (Graph Pad Software, San Diego). The MIC is defined as the concentration of compound required to produce an OD600 reading equivalent to 10% of the vehicle control reading.

[2] = test system: Escherichia coli (ATCC # 25922); assay: Broth microdilution MIC, E. coli; type: cell-based; conditions: for MIC: Escherichia coli, ATCC25922
Protocol: as §1

[3] = test system: Enterococcus faecalis (ATCC # 29212); assay: Broth microdilution MIC, E. faecalis; type: cell-based; conditions: for MIC: Enterococcus faecalis, ATCC29212
Protocol: as §1

[4] = test system: Pseudomonas aeruginosa (ATCC # 27853); assay: Broth microdilution MIC, P. aeruginosa; type: cell-based; conditions: for PSAE/MH (MIC): Mueller Hinton Broth
Protocol: as §1

FAS = molecular target: T1, FAS (Homo sapiens, UniProt P49327); assay: FAS (IC50) marked (SB); type: biochemical; conditions: value marked (SB), not defined
T1 construct: Human FAS was purified from cultured ZR-75-1 human breast cancer cells; endogenous in cells
T1 sequence (P49327 whole entry): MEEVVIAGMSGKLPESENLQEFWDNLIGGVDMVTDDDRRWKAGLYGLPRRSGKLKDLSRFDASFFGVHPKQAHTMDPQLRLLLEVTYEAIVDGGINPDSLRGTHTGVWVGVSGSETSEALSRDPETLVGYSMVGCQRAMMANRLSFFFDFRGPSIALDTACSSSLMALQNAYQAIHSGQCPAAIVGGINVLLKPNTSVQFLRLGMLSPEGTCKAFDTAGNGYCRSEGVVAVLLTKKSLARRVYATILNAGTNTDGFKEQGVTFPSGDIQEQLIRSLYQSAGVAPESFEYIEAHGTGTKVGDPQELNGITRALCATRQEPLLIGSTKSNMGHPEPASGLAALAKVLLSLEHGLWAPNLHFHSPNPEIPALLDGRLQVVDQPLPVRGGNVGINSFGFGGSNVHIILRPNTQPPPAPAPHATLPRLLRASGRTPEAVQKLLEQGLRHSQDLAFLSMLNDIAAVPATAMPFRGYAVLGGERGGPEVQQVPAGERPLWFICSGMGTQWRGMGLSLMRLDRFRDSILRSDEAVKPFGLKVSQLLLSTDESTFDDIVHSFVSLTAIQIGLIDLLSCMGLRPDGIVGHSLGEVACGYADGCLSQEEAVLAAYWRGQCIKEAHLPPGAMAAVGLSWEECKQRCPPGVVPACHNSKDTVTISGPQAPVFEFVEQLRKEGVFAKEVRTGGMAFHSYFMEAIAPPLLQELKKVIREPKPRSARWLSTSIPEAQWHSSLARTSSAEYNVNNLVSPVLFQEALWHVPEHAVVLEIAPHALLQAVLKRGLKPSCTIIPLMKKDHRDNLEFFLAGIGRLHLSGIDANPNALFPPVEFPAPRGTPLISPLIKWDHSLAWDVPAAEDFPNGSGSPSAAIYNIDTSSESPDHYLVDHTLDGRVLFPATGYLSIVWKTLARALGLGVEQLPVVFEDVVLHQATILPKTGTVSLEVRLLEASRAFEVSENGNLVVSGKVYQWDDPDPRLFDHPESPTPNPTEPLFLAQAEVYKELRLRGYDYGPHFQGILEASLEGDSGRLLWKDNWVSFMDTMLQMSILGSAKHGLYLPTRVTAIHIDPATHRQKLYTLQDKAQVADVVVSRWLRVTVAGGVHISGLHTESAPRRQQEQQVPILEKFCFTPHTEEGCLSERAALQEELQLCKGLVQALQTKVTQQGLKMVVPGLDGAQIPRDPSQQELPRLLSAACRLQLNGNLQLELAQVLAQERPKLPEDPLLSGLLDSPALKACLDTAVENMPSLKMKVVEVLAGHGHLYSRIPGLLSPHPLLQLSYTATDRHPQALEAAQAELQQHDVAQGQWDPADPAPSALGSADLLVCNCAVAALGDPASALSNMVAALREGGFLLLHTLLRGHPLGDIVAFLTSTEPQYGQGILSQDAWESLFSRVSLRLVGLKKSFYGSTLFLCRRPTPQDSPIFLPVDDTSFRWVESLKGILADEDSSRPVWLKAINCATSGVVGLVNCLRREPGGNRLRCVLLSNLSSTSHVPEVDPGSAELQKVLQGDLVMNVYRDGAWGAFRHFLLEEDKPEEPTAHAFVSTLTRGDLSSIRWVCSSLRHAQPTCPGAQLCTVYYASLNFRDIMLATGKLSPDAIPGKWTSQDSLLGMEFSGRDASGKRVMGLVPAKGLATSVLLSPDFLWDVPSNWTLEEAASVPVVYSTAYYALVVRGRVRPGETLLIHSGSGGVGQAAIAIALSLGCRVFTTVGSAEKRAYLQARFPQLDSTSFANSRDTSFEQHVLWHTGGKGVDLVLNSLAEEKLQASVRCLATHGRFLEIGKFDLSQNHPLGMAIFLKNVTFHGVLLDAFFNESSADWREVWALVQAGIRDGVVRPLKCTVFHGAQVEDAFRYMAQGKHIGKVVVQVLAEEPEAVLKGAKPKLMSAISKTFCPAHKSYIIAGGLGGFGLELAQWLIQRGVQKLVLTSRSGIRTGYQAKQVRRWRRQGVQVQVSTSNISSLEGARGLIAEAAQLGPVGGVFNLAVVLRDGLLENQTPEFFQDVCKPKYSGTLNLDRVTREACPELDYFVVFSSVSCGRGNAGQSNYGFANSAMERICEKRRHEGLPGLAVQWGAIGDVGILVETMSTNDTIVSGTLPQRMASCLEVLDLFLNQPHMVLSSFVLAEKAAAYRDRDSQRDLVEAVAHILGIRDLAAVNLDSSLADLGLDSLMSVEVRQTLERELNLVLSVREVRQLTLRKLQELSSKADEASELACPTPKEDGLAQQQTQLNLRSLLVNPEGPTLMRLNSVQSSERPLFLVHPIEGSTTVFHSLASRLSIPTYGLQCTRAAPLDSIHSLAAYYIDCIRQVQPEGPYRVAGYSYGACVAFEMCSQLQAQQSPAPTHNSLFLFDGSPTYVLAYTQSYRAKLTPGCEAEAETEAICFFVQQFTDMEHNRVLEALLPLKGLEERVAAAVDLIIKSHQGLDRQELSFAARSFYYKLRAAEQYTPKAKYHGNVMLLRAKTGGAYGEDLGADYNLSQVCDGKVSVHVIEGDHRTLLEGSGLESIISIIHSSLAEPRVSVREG

Weight loss screen = type: in vivo, Balb/C mice; conditions: 60 mg/kg intraperitoneally
Protocol: Balb/C mice (Jackson Labs) are utilized for the initial weight loss screening. Animals are housed in temperature and 12 hour day/night cycle rooms and fed mouse chow and water ad lib. Three mice are utilized for each compound tested with vehicle controls in triplicate per experiment. For the experiments, mice are housed separately for each compound tested three mice to a cage. Compounds are diluted in DMSO at 10 mg/ml and mice are injected intraperitoneally with 60 mg/kg in approximately 100 μl of DMSO or with vehicle alone. Mice are observed and weighed daily; average weights and standard errors are computed with Excel (Microsoft). The experiment continues until treated animals reach their pretreatment weights. Select compounds are tested in animals housed in metabolic cages. Dosing of animals are identical to the screening experiments with three animals to a single metabolic cage. Animal weights, water and food consumption, and urine and feces production are measured daily.

[5] = Mueller Hinton Broth, read-out: SA/MH (MIC)
[6] = Trypticase Soy Broth, read-out: EF/Tsoy (MIC)
[7] = Mueller Hinton Broth, read-out: EF/MH (MIC)

SMILES	SA/MH (MIC) ([1]; Mueller Hinton Broth)	SA/Tsoy (MIC) ([1]; Trypticase Soy Broth)	Ecoli/MH (MIC) ([2]; Mueller Hinton Broth)	Ecoli/Tsoy (MIC) ([2]; Trypticase Soy Broth)	EF/MH (MIC) ([3]; Mueller Hinton Broth)	EF/Tsoy (MIC) ([3]; Trypticase Soy Broth)	PSAE/MH (MIC) [4]	PSAE/Tsoy (MIC) ([4]; Trypticase Soy Broth)	IC50 (FAS) [µM]	MIC [1, 5] [µg/mL]	MIC ([1]; Trypticase Soy Broth, read-out: SA/Tsoy (MIC)) [µg/mL]	MIC ([2]; Mueller Hinton Broth, read-out: Ecoli/MH (MIC)) [µg/mL]	MIC ([2]; Trypticase Soy Broth, read-out: Ecoli/Tsoy (MIC)) [µg/mL]	MIC [3, 6] [µg/mL]	MIC ([4]; Pseudomonas aeruginosa, ATCC27853, Trypticase Soy Broth, read-out: PSAE/Tsoy (MIC)) [µg/mL]	MIC [3, 7] [µg/mL]	Weight Loss (Weight loss screen; day 1)	Weight Loss (Weight loss screen; day 2)
CCCCCCCCNC(=O)c1cc(O)c(C(=O)OC)s1	Neg	Neg	Neg	Neg	Neg	Neg	Neg	Neg										
CCCCCCCCNC(=O)c1cc(O)cs1		Neg	Neg		Neg		Neg	(MIC) Neg	325	82 (≈ 321 µM)			89 (≈ 348 µM)	123 (≈ 482 µM)	83 (≈ 325 µM)			60 mg/kg: 1.6% (day 2)
C=CCNC(=O)c1cc(O)c(C(=O)OC)s1		Neg	Neg	Neg			Neg	Neg		80 (≈ 332 µM)				134 (≈ 555 µM)		88 (≈ 365 µM)	60 mg/kg: +2.3% (day 1)	

More lines, in order of falling MIC [1, 5], values ahead:

SA/MH (MIC) ([1]; Mueller Hinton Broth)	SA/Tsoy (MIC) ([1]; Trypticase Soy Broth)	Ecoli/MH (MIC) ([2]; Mueller Hinton Broth)	Ecoli/Tsoy (MIC) ([2]; Trypticase Soy Broth)	EF/MH (MIC) ([3]; Mueller Hinton Broth)	EF/Tsoy (MIC) ([3]; Trypticase Soy Broth)	PSAE/MH (MIC) [4]	PSAE/Tsoy (MIC) ([4]; Trypticase Soy Broth)	IC50 (FAS) [µM]	MIC [1, 5] [µg/mL]	MIC ([1]; Trypticase Soy Broth, read-out: SA/Tsoy (MIC)) [µg/mL]	MIC ([2]; Mueller Hinton Broth, read-out: Ecoli/MH (MIC)) [µg/mL]	MIC ([2]; Trypticase Soy Broth, read-out: Ecoli/Tsoy (MIC)) [µg/mL]	MIC [3, 6] [µg/mL]	MIC ([4]; Pseudomonas aeruginosa, ATCC27853, Trypticase Soy Broth, read-out: PSAE/Tsoy (MIC)) [µg/mL]	MIC [3, 7] [µg/mL]	SMILES	Weight Loss (Weight loss screen; day 1)	Weight Loss (Weight loss screen; day 2)
	Neg	Neg	Neg		Neg	Neg	Neg		149 (≈ 737 µM)						101 (≈ 500 µM)	COC(=O)c1sc(C(=O)O)cc1O		
			Neg	Neg	Neg	Neg	Neg	305	66 (≈ 202 µM)	227 (≈ 695 µM)	136 (≈ 416 µM)					COC(=O)c1sc(C(=O)NNc2ccc(Cl)cc2)cc1O	60 mg/kg: +1.2% (day 1)	
